Measured values from patent publication US10968210B2, “Diamino-alkylamino-linked arylsulfonamide compounds with selective activity in voltage-gated sodium channels” (Merck Sharp & Dohme Corp., priority 2016, dated 2021).

Columns and labels:
[1] = target: T1, human Nav 1.5 channels stably expressed in HEK 293 cells (Homo sapiens, UniProt Q14524); experiment: IonWorks Quattro automated patch-clamp, inactivated state block of Nav 1.5 (reported as ratio to Nav 1.7 potency); assay type: cell-based; conditions: selectivity for Nav 1.7 over Nav 1.5, both by IonWorks
T1 construct: expressed in transfected cells; host or cells: HEK 293
T1 sequence (Q14524 whole entry): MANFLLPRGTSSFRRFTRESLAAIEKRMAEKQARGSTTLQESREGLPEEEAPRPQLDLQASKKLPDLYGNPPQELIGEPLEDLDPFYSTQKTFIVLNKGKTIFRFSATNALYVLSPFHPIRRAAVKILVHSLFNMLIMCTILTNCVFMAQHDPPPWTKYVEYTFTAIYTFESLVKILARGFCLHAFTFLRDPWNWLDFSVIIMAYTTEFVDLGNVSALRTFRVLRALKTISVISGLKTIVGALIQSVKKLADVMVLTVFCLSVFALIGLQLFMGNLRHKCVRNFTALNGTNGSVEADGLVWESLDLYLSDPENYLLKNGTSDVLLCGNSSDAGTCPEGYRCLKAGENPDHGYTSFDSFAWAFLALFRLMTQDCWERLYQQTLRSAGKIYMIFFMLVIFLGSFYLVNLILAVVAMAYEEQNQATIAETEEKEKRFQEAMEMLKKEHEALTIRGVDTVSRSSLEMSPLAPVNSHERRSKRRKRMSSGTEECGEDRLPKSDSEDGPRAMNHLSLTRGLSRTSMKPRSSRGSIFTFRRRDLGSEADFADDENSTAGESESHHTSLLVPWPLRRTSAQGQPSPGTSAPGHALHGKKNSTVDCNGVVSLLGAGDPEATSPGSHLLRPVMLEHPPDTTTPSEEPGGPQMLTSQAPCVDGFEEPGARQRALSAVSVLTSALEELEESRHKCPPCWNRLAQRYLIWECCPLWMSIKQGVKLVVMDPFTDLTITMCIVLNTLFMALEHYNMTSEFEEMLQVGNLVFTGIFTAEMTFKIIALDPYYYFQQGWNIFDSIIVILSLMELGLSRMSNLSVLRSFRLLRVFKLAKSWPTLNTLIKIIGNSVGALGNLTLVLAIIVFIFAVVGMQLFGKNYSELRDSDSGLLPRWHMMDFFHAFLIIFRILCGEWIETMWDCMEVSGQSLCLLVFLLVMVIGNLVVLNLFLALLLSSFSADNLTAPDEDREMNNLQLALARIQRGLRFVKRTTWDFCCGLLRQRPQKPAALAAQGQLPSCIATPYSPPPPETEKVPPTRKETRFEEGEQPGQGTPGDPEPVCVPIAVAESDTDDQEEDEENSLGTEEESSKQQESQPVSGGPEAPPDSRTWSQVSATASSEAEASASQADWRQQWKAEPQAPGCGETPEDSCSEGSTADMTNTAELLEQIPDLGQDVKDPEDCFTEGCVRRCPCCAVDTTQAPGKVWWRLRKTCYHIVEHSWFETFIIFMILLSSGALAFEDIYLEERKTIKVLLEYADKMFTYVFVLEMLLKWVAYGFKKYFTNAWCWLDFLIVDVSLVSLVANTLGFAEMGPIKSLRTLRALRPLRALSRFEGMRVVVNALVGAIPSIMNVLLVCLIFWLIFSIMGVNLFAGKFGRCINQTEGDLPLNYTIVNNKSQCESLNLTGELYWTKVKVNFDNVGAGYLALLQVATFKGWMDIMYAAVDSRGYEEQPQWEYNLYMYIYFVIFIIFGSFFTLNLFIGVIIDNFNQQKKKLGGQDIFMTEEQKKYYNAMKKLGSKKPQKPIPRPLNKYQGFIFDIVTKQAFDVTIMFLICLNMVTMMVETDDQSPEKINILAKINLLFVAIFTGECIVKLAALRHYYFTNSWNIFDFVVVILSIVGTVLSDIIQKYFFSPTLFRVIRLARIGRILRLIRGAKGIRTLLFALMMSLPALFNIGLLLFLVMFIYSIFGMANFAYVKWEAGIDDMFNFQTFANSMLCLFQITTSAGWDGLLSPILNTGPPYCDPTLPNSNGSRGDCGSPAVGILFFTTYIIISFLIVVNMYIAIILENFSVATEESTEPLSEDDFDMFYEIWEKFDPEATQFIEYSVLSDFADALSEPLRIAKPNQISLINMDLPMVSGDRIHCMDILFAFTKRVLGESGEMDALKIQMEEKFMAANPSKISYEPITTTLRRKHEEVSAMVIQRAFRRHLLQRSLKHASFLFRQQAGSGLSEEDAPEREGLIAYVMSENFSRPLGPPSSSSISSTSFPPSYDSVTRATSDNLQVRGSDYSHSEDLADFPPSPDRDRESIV
Experimental: IonWorks® Experimental Procedure
Compounds were tested on human Nav 1.7 and Nav 1.5 channels stably expressed in HEK 293 cells. Sodium current measurements on IonWorks Quattro: An automated patch-clamp assay on the IonWorks Quattro platform (Molecular Devices) was used to measure state-dependent inhibition of human Nav 1.7 and Nav 1.5 channels. Cells were sealed on a planar substrate using the Population Patch Plate (PPC) technology. Electrical access was obtained using both nystatin and amphotericin. A double-pulse protocol was used for the determination of IC50 values for inactivated state block. Nav 1.7 and Nav 1.5 expressing cells were voltage clamped at −100 mV and −110 mV, respectively. A depolarizing prepulse to −10 mV (Nav 1.7) or −30 mV (Nav 1.5) for 1000 ms followed by a 10 ms repolarization to ˜100 mV (Nav1.7) or −110 mV (Nav 1.5) was given to generate fractional channel inactivation of ˜50%, followed by a 10 ms test pulse to −10 mV (Nav 1.7) or −30 mV (Nav 1.5) to measure peak current in control conditions and after compound addition. The following recording solutions were used (mM). External: 150 NaCl, 2 CaCl2, 5 KCl, 1 Mg Cl2, 10 HEPES, 12 Dextrose; internal: 120 CsF, 30 CsCl, 10 EGTA, 5 HEPES, 5 NaF, 2 MgCl2.
For all electrophysiology experiments, offline analysis was used to determine percent inhibition as a function of drug concentration. IC50 values were determined by fitting to the Hill equation.
The various compounds in Examples 1 through 4 and Tables 1 through 3 exemplified above were assayed for activity and selectivity using the foregoing IonWorks® technique. The results are reported in the following paragraph in a format expressing the identification of the compound with reference Example and compound (e.g. Ex 1-9 is Example 1, compound 9) followed by the observed potency in nM and the ratio of Nav1.7 potency: Nav1.5 potency as described here. Thus, Ex1-9: 1.7=65/ratio=641 identifies compound Example 1, compound 9 as having 65 nM potency for the Nav 1.7 sodium ion channel (as measured by IonWorks®) and a ratio of 641 Nav 1.7: Nav 1.5 potency, determined by IonWorks® measurement.

[2] = target: T2, human Nav 1.7 channels stably expressed in HEK 293 cells (Homo sapiens, UniProt Q15858); experiment: IonWorks Quattro automated patch-clamp, inactivated state block of Nav 1.7; assay type: cell-based; conditions: double-pulse protocol, HEK 293 cells held at -100 mV, read-out: potency for the Nav 1.7 sodium ion channel (IC50, IonWorks)
T2 construct: expressed in transfected cells; host or cells: HEK 293
T2 sequence (Q15858 whole entry): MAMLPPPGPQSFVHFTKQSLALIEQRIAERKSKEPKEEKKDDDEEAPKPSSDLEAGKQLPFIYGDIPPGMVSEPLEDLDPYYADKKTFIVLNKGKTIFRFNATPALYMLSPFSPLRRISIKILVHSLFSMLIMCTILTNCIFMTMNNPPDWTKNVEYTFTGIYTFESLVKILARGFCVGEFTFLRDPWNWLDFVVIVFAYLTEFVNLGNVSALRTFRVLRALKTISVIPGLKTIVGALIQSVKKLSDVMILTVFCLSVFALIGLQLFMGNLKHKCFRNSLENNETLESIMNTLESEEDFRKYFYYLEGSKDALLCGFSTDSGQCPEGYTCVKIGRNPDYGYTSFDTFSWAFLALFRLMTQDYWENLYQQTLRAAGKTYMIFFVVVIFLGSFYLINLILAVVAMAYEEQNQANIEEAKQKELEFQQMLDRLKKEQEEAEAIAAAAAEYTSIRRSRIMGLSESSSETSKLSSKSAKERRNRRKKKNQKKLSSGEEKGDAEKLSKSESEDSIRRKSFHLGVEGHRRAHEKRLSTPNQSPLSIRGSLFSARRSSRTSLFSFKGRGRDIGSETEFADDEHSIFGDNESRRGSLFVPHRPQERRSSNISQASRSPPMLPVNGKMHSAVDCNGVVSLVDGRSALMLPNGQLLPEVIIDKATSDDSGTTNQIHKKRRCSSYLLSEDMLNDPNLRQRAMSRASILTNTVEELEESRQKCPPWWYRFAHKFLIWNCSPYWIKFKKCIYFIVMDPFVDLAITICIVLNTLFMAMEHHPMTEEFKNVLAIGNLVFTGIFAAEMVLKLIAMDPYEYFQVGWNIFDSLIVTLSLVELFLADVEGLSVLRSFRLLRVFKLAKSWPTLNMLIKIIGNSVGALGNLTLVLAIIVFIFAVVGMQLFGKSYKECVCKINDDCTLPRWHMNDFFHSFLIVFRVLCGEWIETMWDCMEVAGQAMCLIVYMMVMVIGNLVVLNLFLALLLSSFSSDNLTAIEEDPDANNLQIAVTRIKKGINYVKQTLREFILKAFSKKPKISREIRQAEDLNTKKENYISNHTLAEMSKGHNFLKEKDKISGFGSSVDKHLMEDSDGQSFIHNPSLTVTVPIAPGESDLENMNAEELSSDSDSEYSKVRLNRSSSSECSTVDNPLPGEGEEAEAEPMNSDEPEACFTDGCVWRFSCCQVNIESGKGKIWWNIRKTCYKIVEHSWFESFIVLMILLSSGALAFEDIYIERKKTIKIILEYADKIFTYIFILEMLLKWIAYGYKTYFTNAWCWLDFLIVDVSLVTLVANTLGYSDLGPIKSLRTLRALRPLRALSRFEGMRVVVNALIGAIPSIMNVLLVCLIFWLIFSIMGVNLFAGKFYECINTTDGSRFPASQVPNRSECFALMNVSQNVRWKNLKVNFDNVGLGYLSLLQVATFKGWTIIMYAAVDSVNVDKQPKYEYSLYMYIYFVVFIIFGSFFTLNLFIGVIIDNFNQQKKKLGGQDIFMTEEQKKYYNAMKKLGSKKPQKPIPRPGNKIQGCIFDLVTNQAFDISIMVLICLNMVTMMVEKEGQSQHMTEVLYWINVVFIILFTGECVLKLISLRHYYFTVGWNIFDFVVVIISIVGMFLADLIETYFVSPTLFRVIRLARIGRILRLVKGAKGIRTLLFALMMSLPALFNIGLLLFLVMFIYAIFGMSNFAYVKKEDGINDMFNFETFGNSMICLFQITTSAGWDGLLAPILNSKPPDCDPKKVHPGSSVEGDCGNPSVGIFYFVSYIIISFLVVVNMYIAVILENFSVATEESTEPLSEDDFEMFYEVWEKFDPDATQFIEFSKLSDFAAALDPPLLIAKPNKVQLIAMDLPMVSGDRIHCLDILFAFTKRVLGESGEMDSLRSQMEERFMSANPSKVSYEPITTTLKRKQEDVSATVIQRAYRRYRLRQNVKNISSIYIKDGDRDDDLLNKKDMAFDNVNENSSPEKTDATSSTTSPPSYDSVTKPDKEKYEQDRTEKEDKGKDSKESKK
Summary of the method: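 Inactivated-state block was recorded by automated perforated patch (nystatin plus amphotericin) using a double-pulse protocol. Holding was −100 mV (Nav1.7) or −110 mV (Nav1.5), with a 1000 ms prepulse to −10/−30 mV giving ~50% inactivation, then a 10 ms test pulse. IC50s came from Hill fits of peak current inhibition.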

## N#C[C@H]1CN[C@H](CNCCCCNc2cc(F)c(S(=O)(=O)Nc3nccs3)cc2Cl)C1 [Ex 8-7, 5-chloro-4-{[4-({[(2S,4R)-4-cyanopyrrolidin-2-yl]-methyl}amino)butyl]amino}-2-fluoro-N-1,3-thiazol-2-ylbenzenesulfonamide]
[1]
  ratio of Nav 1.7 : Nav 1.5 potency (IonWorks): > 380
[2]
  IC50: 0.087 µM

## O=S(=O)(Nc1nccs1)c1cc(Cl)c(NCCCCNC[C@H]2C[C@@H](c3ccccc3)CN2)cc1F [Ex 8-11, 5-chloro-2-fluoro-4-{[4-({[(2R,4S)-4-phenylpyrrolidin-2-yl]-methyl}amino)butyl]amino}-N-1,3-thiazol-2-yl-benzenesulfonamide]
[1]
  ratio of Nav 1.7 : Nav 1.5 potency (IonWorks): > 2360
[2]
  IC50: 0.014 µM

## O=S(=O)(Nc1nccs1)c1cc(Cl)c(NCCCCNCC2CCC(c3ccccc3)CN2)cc1F (stereo not shown) [Ex 8-14, 5-chloro-2-fluoro-4-[(4-{[(5-phenyl-piperidin-2-yl)-methyl]amino}butyl)amino]-N-1,3-thiazol-2-yl-benzenesulfonamide]
[1]
  ratio of Nav 1.7 : Nav 1.5 potency (IonWorks): 2290
[2]
  IC50: 0.014 µM

## CO[C@H]1CN[C@H](CNCCCCNc2cc(F)c(S(=O)(=O)Nc3nccs3)cc2Cl)C1 [Ex 8-16]
[1]
  ratio of Nav 1.7 : Nav 1.5 potency (IonWorks): > 520
[2]
  IC50: 0.063 µM

## O=S(=O)(Nc1nccs1)c1cc(Cl)c(NCCCCCNCC2CCCNC2)cc1F (stereo not shown) [Ex 9-04, 5-chloro-2-fluoro-4-({5-[(piperidin-3-ylmethyl)-amino]-pentyl}amino)-N-1,3-thiazol-2-yl-benzenesulfonamide]
[1]
  ratio of Nav 1.7 : Nav 1.5 potency (IonWorks): > 1320
[2]
  IC50: 0.025 µM

## C[C@@H](N)CNCCCCCNc1cc(F)c(S(=O)(=O)Nc2nccs2)cc1Cl [Ex 9-05, 4-[(5-{[(2R)-2-aminopropyl]-amino}penty)amino]-5-chloro-2-fluoro-N-1,3-thiazol-2-yl-benzenesulfonamide]
[1]
  ratio of Nav 1.7 : Nav 1.5 potency (IonWorks): > 420
[2]
  IC50: 0.079 µM

## O=S(=O)(Nc1nccs1)c1cc(Cl)c(NCCCCCNCC2CCN2)cc1F (stereo not shown) [Ex 9-06, 4-({5-[(azetidin-2-ylmethyl)amino]-pentyl}amino)-5-chloro-2-fluoro-N-1,3-thiazol-2-yl-benzenesulfonamide]
[1]
  ratio of Nav 1.7 : Nav 1.5 potency (IonWorks): > 160
[2]
  IC50: 0.2 µM

## O=S(=O)(Nc1nccs1)c1cc(Cl)c(NCC(CCNC[C@@H]2CCCN2)c2ccccc2)cc1F (stereo partly drawn) [Ex 10-3, 5-chloro-2-fluoro-4-((2-phenyl-4-(((S)-pyrrolidin-2-ylmethyl)amino)butyl)amino)-N-(thiazol-2-yl)benzenesulfonamide]
[1]
  ratio of Nav 1.7 : Nav 1.5 potency (IonWorks): > 423
[2]
  IC50: 0.078 µM

## NC[C@H]1CCN1CCCCNc1cc(F)c(S(=O)(=O)Nc2ncns2)cc1Cl [Ex 16-02, 4-({4-[(2R)-2-(aminomethyl)-azetidin-1-yl]butyl}amino)-5-chloro-2-fluoro-N-1,2,4-thiadiazol-5-yl-benzene-sulfonamide]
[1]
  ratio of Nav 1.7 : Nav 1.5 potency (IonWorks): > 1650
[2]
  IC50: 0.02 µM

## CN[C@@H]1CCN(CCCCNc2cc(F)c(S(=O)(=O)Nc3ncns3)cc2Cl)C1 [Ex 16-03, 5-chloro-2-fluoro-4-({4-[(3R)-3-(methylamino)pyrrolidin-1-yl]-butyl}-amino)-N-1,2,4-thiadiazol-5-ylbenzene-sulfonamide]
[1]
  ratio of Nav 1.7 : Nav 1.5 potency (IonWorks): 1930
[2]
  IC50: 0.014 µM

## O=S(=O)(Nc1ncc(F)s1)c1cc(Cl)c(NCCCCNCCNC2C3CC4CC(C3)CC2C4)cc1F (stereo not shown) [Ex 16-07, 5-chloro-2-fluoro-N-(5-fluoro-1,3-thiazol-2-yl)-4-[(4-{[2-(tricyclo[3.3.1.1~3,7~]dec-2-yl-amino)-ethyl]amino}butyl)-amino]-benzene-sulfonamide]
[1]
  ratio of Nav 1.7 : Nav 1.5 potency (IonWorks): > 17400
[2]
  IC50: 0.0019 µM

## NC[C@@H]1CCN1CCCCNc1cc(F)c(S(=O)(=O)Nc2ncc(F)s2)cc1Cl [Ex 16-11, 4-({4-[(2S)-2-(aminomethyl)azetidin-1-yl]-butyl}amino)-5-chloro-2-fluoro-N-(5-fluoro-1,3-thiazol-2-yl)-benzene-sulfonamide]
[1]
  ratio of Nav 1.7 : Nav 1.5 potency (IonWorks): > 1530
[2]
  IC50: 0.015 µM

## O=S(=O)(Nc1ncc(F)s1)c1cc(Cl)c(NCCCCN2C[C@H]3CCCN[C@H]3C2)cc1F [Ex 16-23, 5-chloro-2-fluoro-N-(5-fluoro-1,3-thiazol-2-yl)-4-({4-[(4aR,7aR)-octahydro-6H-pyrrolo[3,4-b]pyridin-6-yl]butyl}amino)benzene-sulfonamide]
[1]
  ratio of Nav 1.7 : Nav 1.5 potency (IonWorks): > 2357
[2]
  IC50: 0.014 µM

## N#Cc1cc(S(=O)(=O)Nc2nccs2)c(F)cc1NCCCCN[C@@H]1CCNC1 [Ex 16-39, 5-cyano-2-fluoro-4-({4-[(3R)-pyrrolidin-3-ylamino]-butyl}amino)-N-1,3-thiazol-2-yl-benzenesulfonamide]
[1]
  ratio of Nav 1.7 : Nav 1.5 potency (IonWorks): > 917
[2]
  IC50: 0.036 µM

## NCC(F)CNCCCCNc1cc(F)c(S(=O)(=O)Nc2ncc(F)s2)cc1Cl (stereo not shown) [Ex 16-46, 4-({4-[(3-amino-2-fluoro-propyl)amino]butyl}amino)-5-chloro-2-fluoro-N-(5-fluoro-1,3-thiazol-2-yl)-benzenesulfonamide]
[1]
  ratio of Nav 1.7 : Nav 1.5 potency (IonWorks): > 970
[2]
  IC50: 0.034 µM

## CNCCNCCCCNc1cc(F)c(S(=O)(=O)Nc2ncns2)cc1F [Ex 16-47, 2,5-difluoro-4-[(4-{[2-(methylamino)ethyl]amino}-butyl)amino]-N-1,2,4-thiadiazol-5-ylbenzene-sulfonamide]
[1]
  ratio of Nav 1.7 : Nav 1.5 potency (IonWorks): > 460
[2]
  IC50: 0.074 µM

## CNCCNCCCCNc1cc(F)c(S(=O)(=O)Nc2nc(C)cs2)cc1Cl [Ex 16-51, 5-chloro-2-fluoro-4-[(4-{[2-(methylamino)ethyl]amino}-butyl)amino]-N-(4-methyl-1,3-thiazol-2-yl)benzene-sulfonamide]
[1]
  ratio of Nav 1.7 : Nav 1.5 potency (IonWorks): > 943
[2]
  IC50: 0.035 µM
